Patent publication US8404665B2, “In vivo use of glutathione S-transferase activated nitric oxide donors” (University of Utah Research Foundation, priority 2002, dated 2013)

How the values were obtained:
PPC-1 cells = assay: Subcutaneous PPC-1 tumor implants in NOD/SCID mice; assay type: in vivo
Procedure: To study the in vivo antineoplastic potency of JS-K, NOD/SCID mice were injected in the flanks subcutaneously with HL-60 or PPC-1 cells (2.5×10^6 cells per flank). When subcutaneous tumors were palpable, treatment with JS-K or an equal volume of vehicle (20% dimethyl sulfoxide in PBS) was started using the indicated doses and route. Tumor size was measured daily or every other day using a Vernier caliper. Tumor volume was calculated using the formula: width×length×[(width+length)/2]×0.5236. Fifteen to 20 days after tumor cell implantation, animals were sacrificed by CO2 inhalation and tumors were collected for histochemical analysis.
Histological Analysis of Tumors. After sacrifice, subcutaneous tumors were dissected out, fixed in 10% formaldehyde and imbedded in paraffin. Four-um sections were cut and stained with Hematoxylin and Eosin.
To determine if JS-K is cytotoxic to solid tumors, the effect of JS-K on the in vitro and in vivo growth of the prostate cancer cell line PPC-1 was studied. Similar to studies in HL-60 cells, indications are that JS-K appears to be a potent growth inhibitor for prostate cancer cells in vitro and in vivo. For the in vitro experiments, JS-K was added to PPC-1 cells at 1, 2, 3, 4, and 5 μM concentrations. […] For the in vivo experiments, NOD/SCID mice were inoculated subcutaneously with […] PPC-1 cells, as described above. When the subcutaneous tumors were measurable, JS-K was administered intravenously at a dose of 4 μmol/kg or an equal volume of vehicle 3 times per week.
In order to determine whether JS-K inhibits the in vivo growth of solid tumor cells, NOD/SCID mice were implanted with 2.5×10^6 PPC-1 (prostate carcinoma) cells and treated with 4 μmol/kg JS-K or an equal volume of vehicle intravenously 3 times a week. Similar to the observation with HL-60 cells, JS-K treatment appeared to inhibit the growth of PPC-1 cells in vivo. Nineteen days after start of therapy, subcutaneous tumor implant volumes were 0.368±0.082 and 0.107±0.053 cm^3 (P=0.0073) in vehicle and JS-K-treated animals, respectively. […]

hGSTM1-1 = target: T1, hGSTM1-1 (Homo sapiens, UniProt P09488); assay: GST-catalysed GSH conjugation of JS-K and NO release; assay type: biochemical
T1 construct: purchased Panvera (Madison, Wis.)
T1 sequence (P09488 2-218): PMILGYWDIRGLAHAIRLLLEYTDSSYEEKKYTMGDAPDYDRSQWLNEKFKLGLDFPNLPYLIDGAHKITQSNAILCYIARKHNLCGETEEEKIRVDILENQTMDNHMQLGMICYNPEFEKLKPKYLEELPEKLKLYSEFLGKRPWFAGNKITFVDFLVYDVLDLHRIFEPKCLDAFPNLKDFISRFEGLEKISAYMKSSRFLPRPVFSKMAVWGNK
Procedure: (§1) Determination of Specific Activity of Human GSTs Toward JS-K. Purified preparations of recombinant hGSTA1-1, hGSTM1-1 and hGSTP1-1 were obtained from Panvera (Madison, Wis.). The activity of human GST toward CDNB was determined, as described by Habig et al. (Habig, W. H. et al. (1974) J. Biol. Chem. 249: 7130-7139), prior to activity measurements with JS-K to ensure that the enzyme preparations were catalytically active. For activity measurement toward JS-K, the reaction mixture in a final volume of 1 ml contained 100 mM potassium phosphate buffer (pH 6.5), 1 mM GSH, 0.045 mM JS-K, and an appropriate amount of human GST isoenzyme protein. The reaction was started by the addition of JS-K, and the rate of reaction was monitored by measuring decrease in absorbance of JS-K at 298 nm due to its utilization during reaction with GSH. The specific activity toward JS-K was calculated using an extinction coefficient of 18 mM^−1 cm^−1 at 298 nm.
(§2) Measurement of NO Release. Chemiluminescence detection and quantification of NO evolving from the reactions of JS-K were conducted using an NO-specific Thermal Energy Analyzer (Model 502A, Thermedics, Analytical Instrument Division, Waltham, Mass.) essentially as previously described (Keefer, L. K. et al. (1996) Methods Enzymol. 268: 281-293). Briefly, pH 7.4 phosphate buffer containing 1 mM GSH was sparged with inert gas until a steady detector response was established. Where indicated, GSTs were added to a final concentration of 1.67 ug of enzyme/ml. The NO release profile was followed at 37° C. for 45 min after injecting JS-K at a final concentration of 133 nM to start the reaction. The resulting curve was integrated to quantify the amount of NO released/mole of compound.

hGSTP1-1 = target: T2, hGSTP1-1 (Homo sapiens, UniProt P09211); assay: as above; assay type: biochemical
T2 construct: purchased Panvera (Madison, Wis.)
T2 sequence (P09211 2-210 limits assumed): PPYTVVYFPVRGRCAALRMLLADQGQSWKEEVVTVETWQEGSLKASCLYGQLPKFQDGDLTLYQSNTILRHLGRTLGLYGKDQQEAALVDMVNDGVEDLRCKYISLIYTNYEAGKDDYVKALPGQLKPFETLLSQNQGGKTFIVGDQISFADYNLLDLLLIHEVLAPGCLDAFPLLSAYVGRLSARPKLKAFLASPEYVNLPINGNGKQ
Procedure: as §1, §2

hGSTA1-1 = target: T3, hGSTA1-1 (Homo sapiens, UniProt P08263); assay: as above; assay type: biochemical
T3 sequence (P08263 1-222): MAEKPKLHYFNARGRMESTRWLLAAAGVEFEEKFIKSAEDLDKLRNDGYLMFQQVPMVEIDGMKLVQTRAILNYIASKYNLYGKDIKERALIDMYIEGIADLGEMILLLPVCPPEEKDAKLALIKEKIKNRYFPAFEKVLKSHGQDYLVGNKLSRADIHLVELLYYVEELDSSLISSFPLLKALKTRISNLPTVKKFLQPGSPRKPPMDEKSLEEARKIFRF
Procedure: as §1, §2

[1] = mouse, in vivo, iv
[2] = 4 μmol/kg i.v. 3 times per week

CCOC(=O)N1CCN(/[N+]([O-])=N/Oc2ccc([N+](=O)[O-])cc2[N+](=O)[O-])CC1 [JS-K, O^2-(2,4-dinitrophenyl) 1-[(4-ethoxycarbonyl)piperazin-1-yl]diazen-1-ium-1,2-diolate]
prostate cancer growth in vivo (PPC-1 cells; [2]): significant delay in prostate cancer growth in vivo
tumor histology (necrosis) (PPC-1 cells; [2]): high degree of extensive tumor necrosis
subcutaneous tumor implant volume (PPC-1 cells; nineteen days after start of therapy, vehicle 0.368±0.082, P=0.0073): 0.107±0.053 cm^3
catalysis of JS-K conjugation (hGSTM1-1): much superior to hGSTP1-1
catalysis of NO release from JS-K with GSH (hGSTP1-1; hGSTP1-1): only weakly
activity for GSH conjugation of JS-K (hGSTP1-1; recombinant hGSTP1-1): much less active than hGSTA1-1 or hGSTM1-1
effect of JS-K exposure on enzyme's ability to catalyze CDNB's conjugation with GSH (hGSTP1-1; up to 80 uM JS-K): unfettered ability
catalysis of JS-K conjugation (hGSTA1-1): much superior to hGSTP1-1
peak blood concentration the dose would achieve [1]: approximately 68 μM
